According to BindingDB's records for doi:10.1021/acschembio.6b00677 (Pfizer, 2016):

Legend:
Test in all cases: TR-FRET Competition Assay
Settings in all cases: pH 7.5
[1] = target: Tyrosine-protein kinase Blk (Homo sapiens, UniProt P51451)
Procedure: (§1) Assay buffer was 20 mM HEPES, pH 7.5, 10 mM MgCl2, 0.01% BSA, 1 mM DTT, 0.0005% Tween 20, and 2% DMSO. […] The assays were read using an EnVi

[2] = target: T1, Tyrosine-protein kinase TXK (Homo sapiens, UniProt P42681)
T1 sequence (P42681 whole entry): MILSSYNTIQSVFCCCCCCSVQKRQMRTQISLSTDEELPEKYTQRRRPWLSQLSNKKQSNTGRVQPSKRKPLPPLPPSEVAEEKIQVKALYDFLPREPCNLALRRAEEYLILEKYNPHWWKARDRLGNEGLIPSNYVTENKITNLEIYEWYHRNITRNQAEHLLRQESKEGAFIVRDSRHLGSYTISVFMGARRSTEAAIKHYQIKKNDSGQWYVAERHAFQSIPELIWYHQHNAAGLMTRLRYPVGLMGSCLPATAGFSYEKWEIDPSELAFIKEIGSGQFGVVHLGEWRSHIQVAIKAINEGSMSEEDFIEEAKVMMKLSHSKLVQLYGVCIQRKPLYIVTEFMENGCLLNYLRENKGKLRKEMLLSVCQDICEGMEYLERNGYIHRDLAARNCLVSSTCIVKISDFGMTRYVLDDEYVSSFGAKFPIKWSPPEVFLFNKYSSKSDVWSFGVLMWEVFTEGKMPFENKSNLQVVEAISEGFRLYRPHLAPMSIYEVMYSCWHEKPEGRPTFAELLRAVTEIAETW
Procedure: as §1

[3] = target: T2, Tyrosine-protein kinase Tec (Homo sapiens, UniProt P42680)
T2 sequence (P42680 whole entry): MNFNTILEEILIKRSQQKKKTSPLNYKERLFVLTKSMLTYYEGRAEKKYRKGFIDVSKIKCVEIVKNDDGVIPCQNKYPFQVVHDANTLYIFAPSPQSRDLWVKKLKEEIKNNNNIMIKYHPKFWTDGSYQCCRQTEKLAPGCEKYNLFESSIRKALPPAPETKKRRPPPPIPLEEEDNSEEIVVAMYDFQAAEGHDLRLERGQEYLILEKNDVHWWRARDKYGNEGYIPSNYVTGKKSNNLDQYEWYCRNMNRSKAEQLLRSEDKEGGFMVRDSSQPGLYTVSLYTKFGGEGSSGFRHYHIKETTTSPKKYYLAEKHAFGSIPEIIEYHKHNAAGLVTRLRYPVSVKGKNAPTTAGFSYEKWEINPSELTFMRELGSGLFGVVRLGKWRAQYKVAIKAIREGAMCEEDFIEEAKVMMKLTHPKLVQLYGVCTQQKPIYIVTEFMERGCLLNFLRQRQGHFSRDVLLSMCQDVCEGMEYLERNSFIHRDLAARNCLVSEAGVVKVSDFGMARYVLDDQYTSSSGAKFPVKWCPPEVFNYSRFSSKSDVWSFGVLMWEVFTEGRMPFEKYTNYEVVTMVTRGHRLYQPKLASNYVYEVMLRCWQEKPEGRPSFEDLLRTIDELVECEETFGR
Procedure: as §1

Chain of Tyrosine-protein kinase Blk (P51451 whole entry): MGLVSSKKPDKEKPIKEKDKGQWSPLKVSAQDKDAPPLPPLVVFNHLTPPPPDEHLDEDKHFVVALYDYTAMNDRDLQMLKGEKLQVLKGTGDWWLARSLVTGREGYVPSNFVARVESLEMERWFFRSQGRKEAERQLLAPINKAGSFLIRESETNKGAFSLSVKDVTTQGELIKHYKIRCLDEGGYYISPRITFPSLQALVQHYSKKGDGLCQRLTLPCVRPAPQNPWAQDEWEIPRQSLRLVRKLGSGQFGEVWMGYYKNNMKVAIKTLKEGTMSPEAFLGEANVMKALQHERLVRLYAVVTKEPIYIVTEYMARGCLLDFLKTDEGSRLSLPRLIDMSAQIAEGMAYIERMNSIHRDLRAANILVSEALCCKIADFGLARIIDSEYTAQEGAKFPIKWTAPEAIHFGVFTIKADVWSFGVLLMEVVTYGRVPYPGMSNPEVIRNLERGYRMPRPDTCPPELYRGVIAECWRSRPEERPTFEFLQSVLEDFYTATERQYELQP

Molecule `C=CC(=O)N1C[C@H](Nc2ncnc3[nH]ccc23)CC[C@@H]1C` [PF-06651600] has a Ki [1] of 32.4 nM, a Ki [2] of 0.131 nM and a Ki [3] of 0.679 nM.
